These results are taken from patent US11939330B1, “Pyrido[3,4-b]indole-6-carboxylic acid compounds as CK2 inhibitors” (KING FAISAL UNIVERSITY, priority 2023, dated 2024).

One assay concerns HL60 (leukemia). Description: In vitro cytotoxic activity (MTT) assay, HL60. To be noted: Homo sapiens, HL-60; HL60 (leukemia) cells, exposed for 96 hours; read-out: IC50, concentration of compound eliciting a 50% inhibition of cell proliferation. The class given is cell-based. The method, then:
(§1) Compounds 1-12 were screened for their in vitro cytotoxic activity utilizing a 3-(4,5-dimethyl-thiazol-2-yl)-2,5-diphenyltetrazolium bromide (MTT) assay against selected cancer human cell lines consisting of PC3 (prostate), HCT116 (colon), A375 (melanoma), H1299 (lung), MIAPaCa-2 (pancreas), HL60 (leukemia), MCF7 (breast), MDA-MB-231 (breast) (T. Mosmann, J. Immunol. Meth., 1983, 65, 55-63). The cells were cultured at 37° C. in RMPI1640 medium supplemented with 10% fetal bovine serum, 50 IU/mL penicillin, and 50 μg/mL streptomycin in a 5% CO2 incubator. All cells were sub-cultured 3 times/week by trypsinisation. Viable cells were seeded and allowed to adhere for 12 h before a test drug was added in 96-well plates at an initial density of 1.0×10^5 cells/mL. Tumour cell lines were separately exposed to various concentrations of the tested compounds followed by incubation at a temperature of 37° C. during 96 h inside a medium of fresh RMPI 1640. Cells were subsequently incubated at 37° C. using MTT at 0.5 mg/mL during 4 h. After removal of supernatant, formazan crystals were dissolved in isopropanol and the optical density was measured at 570 nm. CX-4945 was used as a positive control.

In a further assay the test system is A375 (melanoma). Description: In vitro cytotoxic activity (MTT) assay, A375. The class given is cell-based. To be noted: Homo sapiens, A-375; A375 (melanoma) cells, exposed for 96 hours; read-out: IC50, concentration of compound eliciting a 50% inhibition of cell proliferation. The procedure: as §1
A further assay concerns H1299 (lung). Description: In vitro cytotoxic activity (MTT) assay, H1299. The class given is cell-based. To be noted: Homo sapiens, NCI-H1299; H1299 (lung) cells, exposed for 96 hours; read-out: IC50, concentration of compound eliciting a 50% inhibition of cell proliferation. The procedure:
as §1

The subject of another assay is MDA-MB-231 (breast). Description: In vitro cytotoxic activity (MTT) assay, MDA-MB-231. The class given is cell-based. The following applies: Homo sapiens; MDA-MB-231 (breast) cells, exposed for 96 hours; read-out: IC50, concentration of compound eliciting a 50% inhibition of cell proliferation. The procedure: as §1
For another assay, the system named is PC3 (prostate). Description: In vitro cytotoxic activity (MTT) assay, PC3. The class given is cell-based. To be noted: Homo sapiens, Prostate cell; PC3 (prostate) cells, exposed for 96 hours; read-out: IC50, concentration of compound eliciting a 50% inhibition of cell proliferation. The method, then:
as §1

A further assay relates to HCT116 (colon). Description: In vitro cytotoxic activity (MTT) assay, HCT116. The class given is cell-based. To be noted: Homo sapiens, HCT-116; HCT116 (colon) cells, exposed for 96 hours; read-out: IC50, concentration of compound eliciting a 50% inhibition of cell proliferation. The procedure:
as §1

For a further assay, the system named is MCF7 (breast). Description: In vitro cytotoxic activity (MTT) assay, MCF7. The class given is cell-based. To be noted: Homo sapiens; MCF7 (breast) cells, exposed for 96 hours; read-out: IC50, concentration of compound eliciting a 50% inhibition of cell proliferation. The method, then:
as §1

In the next assay the target is T1, recombinant human CK2 (Homo sapiens, UniProt P68400).
T1 construct: purchased Millipore
T1 sequence (P68400 whole entry): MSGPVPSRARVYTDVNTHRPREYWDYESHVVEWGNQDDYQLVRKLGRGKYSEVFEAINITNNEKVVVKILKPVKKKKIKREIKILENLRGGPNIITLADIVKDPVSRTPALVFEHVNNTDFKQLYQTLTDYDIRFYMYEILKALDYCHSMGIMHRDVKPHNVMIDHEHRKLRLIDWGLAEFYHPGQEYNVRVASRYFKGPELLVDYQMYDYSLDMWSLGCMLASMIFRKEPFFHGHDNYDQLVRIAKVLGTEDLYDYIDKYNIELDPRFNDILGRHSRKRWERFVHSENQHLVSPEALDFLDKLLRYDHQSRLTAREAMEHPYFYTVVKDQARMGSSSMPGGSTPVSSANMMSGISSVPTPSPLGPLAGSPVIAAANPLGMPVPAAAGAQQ
T1 sequence (P67870 whole entry partner): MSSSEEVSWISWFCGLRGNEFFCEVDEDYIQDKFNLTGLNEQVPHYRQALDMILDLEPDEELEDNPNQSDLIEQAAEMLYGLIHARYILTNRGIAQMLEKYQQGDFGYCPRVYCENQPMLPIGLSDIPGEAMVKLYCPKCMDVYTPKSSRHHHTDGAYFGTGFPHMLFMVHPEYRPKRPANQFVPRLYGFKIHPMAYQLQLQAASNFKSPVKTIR
Description: CK2 Kinase Assay (33P-ATP, substrate peptide RRRDDDSDDD). To be noted: final ATP concentration 15 μM, 10 min at 30° C.; read-out: protein kinase CK2 activity IC50. The class given is biochemical. The method, then:
CK2 Kinase Assay was conducted using the protocol as described in Pierre F. et al; J. Med. Chem. 2011, 54, 635-654. The tested compounds in aqueous solution were added at a volume of 10 μL to a reaction mixture comprising 10 μL of assay dilution buffer (ADB; 20 mM MOPS, pH 7.2, 25 mM β-glycerol phosphate, 5 mM EGTA, 1 mM sodium orthovanadate, and 1 mM dithiothreitol), 10 μL of substrate peptide (RRRDDDSDDD, dissolved in ADB at a concentration of 1 mM), 10 μL of recombinant human CK2 (RROP-holoenzyme, 25 ng dissolved in ADB; Millipore). Reactions were initiated by the addition of 10 μL of ATP solution (90% 75 mMMgCl2, 75 μM ATP (final ATP concentration:15 μM) dissolved in ADB; 10% [7-33P] ATP (stock 1 mCi/100 L; 3000 Ci/mmol (Perkin-Elmer) and maintained for 10 min at 30° C. The reactions were quenched with 100 μL of 0.75% phosphoric acid and then transferred to and filtered through a phosphor cellulose filter plate (Millipore). After washing each well five times with 0.75% phosphoric acid, the plate was dried under vacuum for 5 min and, following the addition of 15 μL of scintillation fluid to each well, the residual radioactivity was measured using a Wallac […] counter. The IC50 values were derived from eight concentrations of test inhibitors.

The test system of the next assay is MIAPaCa-2 (pancreas). Description: In vitro cytotoxic activity (MTT) assay, MIAPaCa-2. The class given is cell-based. To be noted: Homo sapiens, MIA PaCa-2; MIAPaCa-2 (pancreas) cells, exposed for 96 hours; read-out: IC50, concentration of compound eliciting a 50% inhibition of cell proliferation. The procedure: as §1

Regarding `O=C(O)c1ccc2c(c1)c1ccncc1n2C(=O)c1cccc(Cl)c1` [Compound 7, 9-(3-chlorobenzoyl)-9H-pyrido[3,4-b]indole-6-carboxylic acid], the IC50 in the assay with HL60 (leukemia) came to 1800 nM; in the assay on A375 (melanoma), 3900 nM; in the assay with H1299 (lung), 1500 nM; in the assay with MDA-MB-231 (breast), 3900 nM; in the assay on PC3 (prostate) it was 1600 nM; in the assay with HCT116 (colon), 2400 nM. The values for the IC50 in the assay with MCF7 (breast), on recombinant human CK2 and with MIAPaCa-2 (pancreas) were 4700 nM, 51 nM and 1900 nM, respectively.
